Experiment [1] deals with T1, β2-adrenergic receptor (Homo sapiens, UniProt P07550).
T1 construct: expressed in transfected cells; host or cells: C2C12 myoblasts (retroviral transduction)
Format: cell-based. The following applies: for outcome in high-throughput screen of kinase/phosphatase inhibitor library: library at 3 uM, 384-well plate, duplicate.

For experiment [2], the target named is T1, β2-adrenergic receptor. It counts as cell-based. As to conditions: compound applied 30 min before stimulation with 10 uM isoproterenol. The method, then:
Assays and cell preparation. […] LysoTracker Red and Texas Red-labeled transferrin were purchased from Molecular Probes. The Kinase/Phosphatase Inhibitor Library was purchased from BIOMOL, and the Mechanistic and Diversity Compound Libraries were provided by the Developmental Therapeutics Program of the National Cancer Institute. Cells were plated and grown to confluency in 96-well white tissue culture dishes (Corning Costar), in 100 μl of growth media. Dose-response curves were generated by adding the respective ligand to the media and incubating for 2 h at 37° C. […] At the end of the described incubation time, Gal-Screen reagent (Buffer B formulation, Applied Biosystems) was used to assay for β-galactosidase activity, according to manufacturer's protocol; media was aspirated from the plate, and 50 μl (or 25 μl for 384-well plates, without prior media aspiration) of Gal-Screen substrate diluted in lysis buffer was added to each well.

Experiment [3] concerns the target Angiotensin II receptor 1a (AT1a) (Mus musculus, UniProt P29754). As to conditions: 2 hr. From the text:
Plasmids. […] Other FYVE domains were generated similarly by RT-PCR^˜. […] To generate a β2AR-eYFP-α construct, the eYFP-α fragment was subcloned into the β2AR-ωplasmid using Xhol and HindIII. The Angiotensin receptor 1a was derived by RT-PCR from C57/BI6 mouse brain RNA using primers for the entire coding sequence, minus the stop codon; it was cloned N-terminally to eYFP-α or ω with MfeI and XhoI. […] Finally, to generate fusion proteins with β-arrestin, the full coding sequence of human β-arrestin B2 was PCR amplified from a cDNA clone and inserted into the Mfel-XhoI sites of the ω and eYFP-α vectors.
Assays and cell preparation. […] LysoTracker Red and Texas Red-labeled transferrin were purchased from Molecular Probes. The Kinase/Phosphatase Inhibitor Library was purchased from BIOMOL, and the Mechanistic and Diversity Compound Libraries were provided by the Developmental Therapeutics Program of the National Cancer Institute. Cells were plated and grown to confluency in 96-well white tissue culture dishes (Corning Costar), in 100 μl of growth media. Dose-response curves were generated by adding the respective ligand to the media and incubating for 2 h at 37° C. […]

The record followed here is patent US8426138B2 (priority 2006, dated 2013).

T1 sequence (P07550 whole entry, species assumed): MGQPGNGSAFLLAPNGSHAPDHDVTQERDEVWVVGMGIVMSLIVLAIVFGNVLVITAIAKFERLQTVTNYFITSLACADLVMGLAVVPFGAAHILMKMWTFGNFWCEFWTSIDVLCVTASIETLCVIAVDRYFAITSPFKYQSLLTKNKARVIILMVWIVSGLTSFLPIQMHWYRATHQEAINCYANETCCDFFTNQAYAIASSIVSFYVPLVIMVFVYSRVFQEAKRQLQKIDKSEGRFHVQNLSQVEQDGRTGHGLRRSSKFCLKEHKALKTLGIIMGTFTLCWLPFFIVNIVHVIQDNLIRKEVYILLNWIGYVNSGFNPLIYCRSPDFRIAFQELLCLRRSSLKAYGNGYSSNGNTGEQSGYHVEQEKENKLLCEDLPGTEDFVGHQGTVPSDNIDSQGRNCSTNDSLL

In the case of `O=CN/C=C/c1cc(O)ccc1O` [erbstatin], the “outcome in high-throughput screen of kinase/phosphatase inhibitor library” value at β2-adrenergic receptor [1] is “inhibitors of internalization”.
Same read-out and setting: the result for `CN[C@@H]1C[C@H]2O[C@@](C)([C@@H]1OC)n1c3ccccc3c3c4c(c5c6ccccc6n2c5c31)C(=O)NC4` [staurosporine] reads “inhibitors of internalization”.
As for `COC[C@H]1OC(=O)c2coc3c2[C@@]1(C)C1=C(C3=O)[C@@H]2CCC(=O)[C@@]2(C)C[C@H]1OC(C)=O` [wortmannin], on β2-adrenergic receptor [1], the “inhibition, internalization assay” value is recorded as “approximately 90%”. Further, the inhibition of activation entry against β2-adrenergic receptor [2] was “approximately 50%”.
On to angiotensin II, for which, in experiment [3], the “increase in activity, internalization assay” value turned out to be 4 fold and the “increase in enzyme activity, arrestin-binding activation assay” value is 8.5 fold.
